US10548912B2, “Dosage regimen for a tiacumicin compound” (Astellas Pharma Europe Ltd., priority 2015, dated 2020)
Like-named read-outs stand apart in the source and are kept apart here.

Legend:
CDI = settings: Phase III studies, mITT analysis; cited from earlier work
[1] = tested on: Clostridium difficile infections (CDI); settings: following a vancomycin taper; cited from earlier work
[2] = tested on: Clostridium difficile infection; experiment: Phase IIIb/IV randomized open-label EXTEND study (2819-MA-1002): extended fidaxomicin vs standard vancomycin; type: in vivo, human
Procedure: Fidaxomicin (FDX) is believed to reduce recurrence primarily through minimal collateral damage to colonic microflora. […] Subjects will receive 200 mg twice daily (b.i.d.) for 5 days from Day 1 to Day 5. From Day 6 to Day 25, subjects will receive 200 mg once daily on alternate days (first alternate day dose given on Day 7). This extension of the dose will allow a longer period for the protective microflora to recover and extend the period of time over which Clostridium difficile cells are suppressed, and kill any dormant spores that germinate. The extension of the dose also targets the early recurrence period documented in the phase 3 studies—the first 15 days after the end of therapy during which the majority of recurrences occurred. By covering this period this revised dosing regimen may reduce the recurrence to <10%, preferably to <5% and even more preferred to <3%. The impact on the gut microflora was limited supporting the rationale for this study.
The dosing of vancomycin (Vancocin™) to be administered in this study is in line with the SmPC for Vancocin. Subjects will receive 125 mg four times daily (q.i.d.) for 10 days from Day 1 to Day 10.
The dosage regimen was as described in Table 1 of Example 1.

[3] = tested on: Clostridium difficile (C. diff) toxins A and B; experiment: Detection of C. difficile toxins A and B in human faecal samples by ELISA (EXTEND samples); type: in vivo
Procedure: The detection of Clostridium difficile (C. diff) toxins A and B in human faecal samples was performed by ELISA. The samples to be analysed originated from clinical study 2819-MA-1002 (EXTEND).
The samples were sent to LGC (Analytical lab in Fordham, Cambridgeshire, UK) packed in dry ice and upon receipt stored in a freezer (nominally −80° C.). For each patient a stool sample was collected at Day 0 (screening) and also in case of disease recurrence or an unscheduled visit. For subjects participating in the Microbiome sub-study stool samples were collected at: Day 0 (screening), Day 5, Day 12, Day 27, Day 40, Day 55 and in the case of disease recurrence or an unscheduled visit. A total of 596 faecal samples were collected during the study.
C. difficile toxins A and B in human faecal samples were detected using TECHLAB C. difficile Tox A/B II ELISA kits (Product Number T5015).
The assay readout is the spectrophotometric dual wavelength optical density (OD) read at 450 nm and referenced at 620 nm and expressed in Absorbance Units (AU). All samples were measured in duplicate. The presence (+) or absence (−) of toxin was reported together with the mean OD.
The acceptability of each batch of test samples was dependent on the data from the QC samples fulfilling the acceptance criteria outlined below in Table 5, in that all positive QCs remain above the cut off value of >0.080 OD and negative QCs remain ≤0.080 OD. All batches contained 2 separate sets of QC samples which were measured in duplicate. The precision was calculated between the OD of replicates of each set using the coefficient of variation (CV) which should be <20%.

[4] = tested on: Clostridium difficile infection; settings: Louie 2011; 200 mg Fidaxomicin twice daily or vancomycin 125 mg four times daily orally for 10 days; cited from earlier work
[5] = tested on: Clostridium difficile infection; settings: Cornely 2012; 200 mg Fidaxomicin twice daily or vancomycin 125 mg four times daily orally for 10 days; cited from earlier work
[6] = Day 55, extended fidaxomicin or standard vancomycin
[7] = Table 7, extended fidaxomicin regimen of Example 1 or standard vancomycin
[8] = extended fidaxomicin Day 55, standard vancomycin Day 40
[9] = Sub-study visit day 5, n = 20 per arm
[10] = Sub-study visit day 12, n = 20 per arm
[11] = Sub-study visit day 27, n = 20 Fidaxomicin, 17 Vancomycin

CN[C@H](CC(C)C)C(=O)N[C@H]1C(=O)N[C@@H](CC(N)=O)C(=O)N[C@H]2C(=O)N[C@H]3C(=O)N[C@H](C(=O)N[C@H](C(=O)O)c4cc(O)cc(O)c4-c4cc3ccc4O)[C@H](O)c3ccc(c(Cl)c3)Oc3cc2cc(c3O[C@@H]2O[C@H](CO)[C@@H](O)[C@H](O)[C@H]2O[C@H]2C[C@](C)(N)[C@H](O)[C@H](C)O2)Oc2ccc(cc2Cl)[C@H]1O [vancomycin]
Recurrence of CDI (CDI): 26% | Average symptom-free interval (SFI) [1]: 37 days | % of patients with <3 Unformed bowel movements per day (UBM) ([2]; Day 1): 21.1% | % of patients with ≥3 Unformed bowel movements per day (UBM) ([2]; Day 1): 78.9% | % of patients with <3 Unformed bowel movements per day (UBM) ([2]; Day 2): 40.6% | % of patients with ≥3 Unformed bowel movements per day (UBM) ([2]; Day 2): 59.4% | % of patients with <3 Unformed bowel movements per day (UBM) ([2]; Day 3): 59.6% | % of patients with ≥3 Unformed bowel movements per day (UBM) ([2]; Day 3): 40.4% | % of patients with <3 Unformed bowel movements per day (UBM) ([2]; Day 4): 72.0% | % of patients with ≥3 Unformed bowel movements per day (UBM) ([2]; Day 4): 28.0% | % of patients with <3 Unformed bowel movements per day (UBM) ([2]; Day 5): 81.4% | % of patients with ≥3 Unformed bowel movements per day (UBM) ([2]; Day 5): 18.6% | % of patients with <3 Unformed bowel movements per day (UBM) ([2]; Day 6): 80.6% | % of patients with ≥3 Unformed bowel movements per day (UBM) ([2]; Day 6): 19.4% | % of patients with <3 Unformed bowel movements per day (UBM) ([2]; Day 7): 85.5% | % of patients with ≥3 Unformed bowel movements per day (UBM) ([2]; Day 7): 14.5% | % of patients with <3 Unformed bowel movements per day (UBM) ([2]; Day 8): 86.8% | % of patients with ≥3 Unformed bowel movements per day (UBM) ([2]; Day 8): 13.2% | % of patients with <3 Unformed bowel movements per day (UBM) ([2]; Day 9): 88.1% | % of patients with ≥3 Unformed bowel movements per day (UBM) ([2]; Day 9): 11.9% | % of patients with <3 Unformed bowel movements per day (UBM) ([2]; Day 10): 89.9% | % of patients with ≥3 Unformed bowel movements per day (UBM) ([2]; Day 10): 10.1% | % of patients with <3 Unformed bowel movements per day (UBM) ([2]; Day 11): 91.5% | % of patients with ≥3 Unformed bowel movements per day (UBM) ([2]; Day 11): 8.5% | % of patients with <3 Unformed bowel movements per day (UBM) ([2]; Day 12): 94.7% | % of patients with ≥3 Unformed bowel movements per day (UBM) ([2]; Day 12): 5.3% | % of patients with <3 Unformed bowel movements per day (UBM) ([2]; Day 13): 84.4% | % of patients with ≥3 Unformed bowel movements per day (UBM) ([2]; Day 13): 15.6% | Recurrence of CDI (%) at visit 5 (Day 55) [2, 6]: 16.1% | Recurrence of CDI at visit 5 (Day 55) (patients/N) [2, 6]: 26/161 | Recurrence of CDI at visit 5 (Day 55) (patients/N) ([2]; Day 55, extended fidaxomicin or standard vancomycin, listed as VAN): 15/94 | Recurrence 30 days after end of treatment (%) [2, 7]: 16.1% | Recurrence 30 days after end of treatment (patients/N) [2, 7]: 26/161 | Sustained clinical cure (%) at 30 days after end of treatment [2, 8]: 62.9% | Sustained clinical cure at 30 days after end of treatment (patients/N) [2, 8]: 105/167 | Sustained clinical cure (%) at 30 days after end of treatment ([2]; extended fidaxomicin Day 55, standard vancomycin Day 40, listed as VAN): 62.9% | CDI toxin in faecal stool samples, Negative (%) [3, 9]: (75%) | CDI toxin in faecal stool samples, Negative (number of subjects) [3, 9]: 15 | CDI toxin in faecal stool samples, Positive (%) [3, 9]: (25.0%) | CDI toxin in faecal stool samples, Positive (number of subjects) [3, 9]: 5 | CDI toxin in faecal stool samples, Negative (%) [3, 10]: (100.0%) | CDI toxin in faecal stool samples, Negative (number of subjects) [3, 10]: 20 | CDI toxin in faecal stool samples, Positive (number of subjects) [3, 10]: 0 | CDI toxin in faecal stool samples, Negative (%) [3, 11]: (82.4%) | CDI toxin in faecal stool samples, Negative (number of subjects) [3, 11]: 14 | CDI toxin in faecal stool samples, Positive (%) [3, 11]: (17.6%) | CDI toxin in faecal stool samples, Positive (number of subjects) [3, 11]: 3 | Recurrence 30 days after end of treatment (%) [4]: 25.3% | Recurrence 30 days after end of treatment (patients/N) [4]: 67/265 | Sustained clinical cure 30 days after end of treatment (patients/N) [4]: 198/309 | Recurrence 30 days after end of treatment (%) [5]: 26.9% | Recurrence 30 days after end of treatment (patients/N) [5]: 60/223 | Sustained clinical cure 30 days after end of treatment (patients/N) [5]: 163/257
